Assay results taken from article PMC10108349, “Small-Molecule Fluorescent Ligands for the CXCR4 Chemokine Receptor” (Journal of Medicinal Chemistry, 2023).

Columns and labels:
[1] = system: HEK293G cells stably expressing SNAP-CXCR4; assay: Confocal microscopy of fluorescent ligand binding; format: cell-based, human; conditions: for localisation of fluorescence in cells: 30 min at 37 °C; for membrane fluorescence after pretreatment with IT1t or AMD3100: 10 μM IT1t or 10 μM AMD3100, 30 min pre-incubation; for binding after treatment with AMD3100: 10 μM AMD3100, 30 min pre-incubation
Experimental: HEK293G-SNAP-CXCR4 cells were seeded onto poly-D-lysine-coated (10 μg/mL) 8-well Nunc Lab-tek chambered coverglass (no. 1.0 borosilicate glass bottom) in DMEM supplemented with 10% FCS at a density of 30,000 cells per well. The following day, media were replaced with fresh media supplemented with 10% FCS containing 0.5 μM SNAP-Surface Alexa Fluor 488 (New England Biolabs, Hitchin UK) for 30 min at 37 °C. […]
Cells were imaged on a Zeiss LSM880 with a Zeiss Axio Observer Z1 stand (Carl Zeiss, Germany) using a 40× C-apochromat NA1.2 water immersion objective. Excitation was via a 488 nm argon (to image SNAP-Surface Alexa Fluor 488) and 633 nm helium-neon (to image fluorescent ligands) laser lines with a 488/561/633 multibeam splitter and emission collected using a 493–628 nm band pass or 638–737 nm band pass. The pinhole was set at 1 Airy unit for the longer wavelength and laser power and gain and offset settings kept constant within the experiment to allow comparison. Equatorial plane images were made and four images were captured per condition per experiment using ZEN 2012 software (Carl Zeiss, Germany). Imaging of each ligand was performed at least three times.

NLuc-CXCR4 = molecular target: T1, NLuc-CXCR4 (Homo sapiens, UniProt P61073); format: binding
T1 construct: expressed in transfected cells; membranes prepared from them
T1 sequence (P61073 whole entry): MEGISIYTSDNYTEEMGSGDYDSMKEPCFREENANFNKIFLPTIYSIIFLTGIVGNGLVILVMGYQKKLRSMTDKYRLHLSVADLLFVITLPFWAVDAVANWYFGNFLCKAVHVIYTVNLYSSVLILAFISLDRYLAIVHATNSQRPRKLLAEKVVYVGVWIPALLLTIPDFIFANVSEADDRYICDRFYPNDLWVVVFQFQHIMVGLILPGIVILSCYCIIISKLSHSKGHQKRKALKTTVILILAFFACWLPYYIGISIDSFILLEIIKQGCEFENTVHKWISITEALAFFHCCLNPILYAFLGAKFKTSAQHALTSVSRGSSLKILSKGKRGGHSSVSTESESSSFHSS
Experimental: In white clear-bottom 96-well plates or white opaque bottom 96-well plates, membranes expressing NLuc-CXCR4 were diluted to 10 μg per well in 20 μL of HBSS containing 0.2% BSA. […] Plates were then incubated in the dark for 2 h at 37 °C in the absence of CO2. The NLuc substrate furimazine (Promega Corporation) was then added (5 μL per well, 10 μM final concentration) and the plates were read using the PHERAstar FS plate reader (BMG Labtech, UK) at room temperature. The filtered light from each well was simultaneously measured using a 460 nm (80 nm band-pass filter) for NLuc emission and >610 nm longpass filter for fluorescence emission of BODIPY 630/650-X coupled ligands. For BODIPY-FL-X coupled ligands, emissions were simultaneously measured at 475 nm (30 nm band-pass filter; NLuc emission) and 535 nm (30 nm bandpass filter; BODIPY FL-X emission). The resulting raw BRET ratio was calculated by dividing the >610 nm emission (for red ligands) or the 535 nm emission (for green ligands) by the emissions measured for NLuc. […]

Compound	localisation of fluorescence in cells ([1]; 100 nM ligand)	membrane fluorescence after pretreatment with IT1t or AMD3100 ([1]; 100 nM ligand)	localisation of fluorescence in cells ([1]; 50 nM ligand)	binding after treatment with AMD3100 ([1]; 50 nM ligand)	further results
CC1(C)CN2C(CS/C(=N/[C@H]3CC[C@H](NC(=O)CCCCCNC(=O)COc4ccc(/C=C/C5=[N+]6C(=Cc7ccc(-c8cccs8)n7[B-]6(F)F)C=C5)cc4)CC3)NC3CCCCC3)=CSC2=N1 [Compound 10, (6,6-Dimethyl-5,6-dihydroimidazo[2,1-b]thiazol-3-yl)methyl (E)-N-Cyclohexyl-N′-((1R,4R)-4-(6-(2-(4-((E)-2-(5,5-difluoro-7-(thiophen-2-yl)-5H-4λ^4,5λ^4-dipyrrolo[1,2-c:2′,1′-f][1,3,2]diazaborinin-3-yl)vinyl)phenoxy)acetamido)hexanamido)cyclo-hexyl)carbamimidothioate]	localized membrane fluorescence and very little intracellular fluorescence	substantially reduced	–	–	–
CN1\C(=C/C=C/C=C/C2=[N+](CCCCCC(=O)N[C@H]3CC[C@H](/N=C(/NC4CCCCC4)SCC4=CSC5=NC(C)(C)CN45)CC3)c3ccc(S(=O)(=O)[O-])cc3C2(C)C)C(C)(C)c2cc(S(=O)(=O)O)ccc21 [Compound 11, 1-(6-(((1R,4R)-4-(((Z)-(Cyclohexylamino) (((6,6-dimethyl-5,6-dihydroimidazo[2,1-b]thiazol-3-yl)methyl)thio)methylene)amino)cyclohexyl)amino)-6-oxohexyl)-3,3-dimethyl-2-((1E,3E)-5-((Z)-1,3,3-trimethyl-5-sulfoindolin-2-ylidene)penta-1,3-dien-1-yl)-3H-indol-1-ium-5-sulfonate]	highly localized to the cell membrane	completely prevented	–	–	–
CN(Cc1ncc2ccccc2c1CCCNC(=O)CCCCCNC(=O)COc1ccc(/C=C/C2=[N+]3C(=Cc4ccc(-c5cccs5)n4[B-]3(F)F)C=C2)cc1)[C@H]1CCCc2cccnc21 [Compound 18a, (S,E)-6-(2-(4-(2-(5,5-Difluoro-7-(thiophen-2-yl)-5H-4λ^4,5λ^4-dipyrrolo[1,2-c:2′,1′-f][1,3,2]diazaborinin-3-yl)vinyl)phenoxy)acetamido)-N-(3-(3-((methyl(5,6,7,8-tetrahydroquinolin-8-yl)amino)methyl)isoquinolin-4-yl)propyl)hexanamide]	–	–	reasonable membrane fluorescence; however, intracellular fluorescence was also apparent	reduced binding to cell surface receptors	–
O=C(CCCCCNC(=O)COc1ccc(/C=C/C2=[N+]3C(=Cc4ccc(-c5cccs5)n4[B-]3(F)F)C=C2)cc1)NCCCCN(Cc1nc2ccccc2[nH]1)[C@H]1CCCc2cccnc21 [Compound 24, (S,E)-N-(4-(((1H-Benzo[d]imidazole-2-yl)methyl) (5,6,7,8-tetrahydroquinolin-8-yl)amino)butyl)-6-(2-(4-(2-(5,5-difluoro-7-(thiophen-2-yl)-5H-4λ4,5λ4-dipyrrolo [1,2-c:2′,1′-f][1,3,2]diazaborinin-3-yl)vinyl)phenoxy)acetamido)hexanamide]	–	–	reasonable membrane fluorescence; however, intracellular fluorescence was also apparent	reduced binding to cell surface receptors	–
CXCL12: chemokine, the only endogenous ligand of CXCR4, purchased from PeproTech	–	–	–	–	concentration-dependent decrease of the BRET signal (NLuc-CXCR4): not; displacement of fluorescently labeled CXCL12 (NLuc-CXCR4): fully displaced
